Experimental data as given in US11753410B2, “Hormone receptor modulators for treating metabolic mutagenic and fibrotic conditions and disorders” (priority 2017, dated 2023).

Legend:
[1] = target: T1, ligand binding domain of human FXR (Homo sapiens, UniProt Q96RI1); test: biochemical; details: for Emax: extent of activation relative to GW4064, read-out: Ligand Binding % Efficacy; for EC50: −log EC50, concentration required to produce 50% activation, FRET 520 nm/495 nm, 1 hour at room temperature, read-out: Ligand Binding pEC50 (converted)
T1 construct: purchased Thermofisher (LanthaScreen) PV4833
T1 sequence (Q96RI1 262-486 limits assumed): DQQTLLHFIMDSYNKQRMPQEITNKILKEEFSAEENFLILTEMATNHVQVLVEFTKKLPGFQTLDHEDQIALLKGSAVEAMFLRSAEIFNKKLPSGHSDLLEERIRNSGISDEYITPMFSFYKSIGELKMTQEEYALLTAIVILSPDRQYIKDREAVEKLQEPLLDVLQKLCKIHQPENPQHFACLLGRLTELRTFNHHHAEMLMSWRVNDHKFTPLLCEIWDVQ

[2] = target: T2, human Farnesoid X receptor ligand-binding domain/Gal4 DNA binding domain chimera (Homo sapiens, UniProt Q96RI1); test: Cell-based assay of FXR activation (FXR-UAS-bla HEK 293T beta-lactamase reporter); details: for Emax: HEK-293T, read-out: Cellular % Efficacy
T2 construct: host or cells: FXR-UAS-bla HEK 293T (CellSensor UAS-bla HEK 293T)
T2 sequence (Q96RI1 262-486 limits assumed): T1 sequence (Q96RI1 262-486 limits assumed)
Protocol: FXR activation was measured using a cell line and procedure obtained from Life Technologies (Cat #K1691). […] Activation of FXR by bound ligands results in transcriptional activation of the beta-lactamase reporter gene, which is detected via assay of beta-lactamase activity.
Cells are harvested and diluted into assay medium containing phenol red-free DMEM supplemented with 2% Charcoal-stripped FBS, pyruvate, non-essential amino acids. Cells are then transferred to a 384 well assay plate. Test compounds are dissolved in DMSO and a 3-fold serial dilution series is generated, then further diluted into assay medium. Compounds in assay medium are added to cells in the 384 well plate and allowed to incubate 16 h at 37 C in the presence of 5% CO2.
A FRET-based […] (CCF4) is loaded into cells as its acetomethoxy ester. Intracellular esterases liberate free CCF4, a cephalosporin core linking 7-hydroxycoumarin to fluorescein. In the presence of beta-lactamase activity produced in the presence of FXR agonists, cleavage of CCF4 spatially separates the two dyes and disrupts FRET, so that exciting the coumarin at 409 nm now produces a blue fluorescence signal at 447 nm. The change in FRET signal is plotted against the test compound concentration and fit to a 3-parameter logistical equation.

| SMILES | Emax [1] | EC50 [1] | EC50 [2] | Emax [2] |
| --- | --- | --- | --- | --- |
| O=C(NS(=O)(=O)CC1CCOC1)c1ccc(N2C[C@@H]3C[C@H]2C[C@H]3OCc2c(C3CC3)cnn2-c2c(Cl)cccc2Cl)cc1 (stereo partly drawn) [Compound I-24, 4-((1S,4S,5R)-5-((4-cyclopropyl-1-(2,6-dichlorophenyl)-1H-pyrazol-5-yl)methoxy)-2-azabicyclo[2.2.1]heptan-2-yl)-N-(((tetrahydrofuran-3-yl)methyl)sulfonyl)benzamide] | 164% | 3.16 nM | 2.51 nM | 107% |
| O=C(O)c1cc(F)c2nc(N3C[C@@H]4C[C@H]3C[C@H]4OCc3c(C4CC4)cnn3-c3c(Cl)cccc3Cl)sc2c1 [Compound I-30, 2-[(1S,4S,5R)-5-{[4-cyclopropyl-1-(2,6-dichlorophenyl)-1H-pyrazol-5-yl]methoxy}-2-azabicyclo[2.2.1]heptan-2-yl]-4-fluoro-1,3-benzothiazole-6-carboxylic acid] | 151% | 15.8 nM | 1.58 nM | 106% |
| O=C(O)c1cc(OC2CC2)c2nc(N3C[C@@H]4C[C@H]3C[C@H]4OCc3c(C4CC4)cnn3-c3c(Cl)cccc3Cl)sc2c1 [Compound I-31, 4-cyclopropoxy-2-[(1S,4S,5R)-5-{[4-cyclopropyl-1-(2,6-dichlorophenyl)-1H-pyrazol-5-yl]methoxy}-2-azabicyclo[2.2.1]heptan-2-yl]-1,3-benzothiazole-6-carboxylic acid] | 116% | 1.58 nM | 0.2 nM | 110% |
| O=C(O)c1cc(C2CCOCC2)c2nc(N3C[C@@H]4C[C@H]3C[C@H]4OCc3c(C4CC4)cnn3-c3c(Cl)cccc3Cl)sc2c1 [Compound I-32, 2-[(1S,4S,5R)-5-{[4-cyclopropyl-1-(2,6-dichlorophenyl)-1H-pyrazol-5-yl]methoxy}-2-azabicyclo[2.2.1]heptan-2-yl]-4-(oxan-4-yl)-1,3-benzothiazole-6-carboxylic acid] | 128% | 2.51 nM | 1 nM | 101% |
| O=C(O)CCc1ccc(N2C[C@@H]3C[C@H]2C[C@H]3OCc2c(C3CC3)cnn2-c2c(Cl)cccc2Cl)c(F)c1 [Compound I-33, 3-{4-[(1S,4S,5R)-5-{[4-cyclopropyl-1-(2,6-dichlorophenyl)-1H-pyrazol-5-yl]methoxy}-2-azabicyclo[2.2.1]heptan-2-yl]-3-fluorophenyl}propanoic acid] | 132% | 39.8 nM | 3.98 nM | 99% |
| O=C(O)CCc1ccc(N2C[C@@H]3C[C@H]2C[C@H]3OCc2c(C3CC3)cnn2-c2c(Cl)cccc2Cl)cc1F [Compound I-34, 3-{4-[(1S,4S,5R)-5-{[4-cyclopropyl-1-(2,6-dichlorophenyl)-1H-pyrazol-5-yl]methoxy}-2-azabicyclo[2.2.1]heptan-2-yl]-2-fluorophenyl}propanoic acid] | 144% | 100 nM | 10 nM | 98% |
| O=C(O)c1ccc(N2C[C@@H]3C[C@H]2C[C@H]3OCc2c(-c3c(Cl)cccc3Cl)cnn2C2CC2)cc1 [Compound I-41, 4-[(1S,4S,5R)-5-{[1-cyclopropyl-4-(2,6-dichlorophenyl)-1H-pyrazol-5-yl]methoxy}-2-azabicyclo[2.2.1]heptan-2-yl]benzoic acid] | 96% | 316 nM | 794 nM | 117% |
| O=C(O)c1ccc(N2C[C@@H]3C[C@H]2C[C@H]3OCc2c(-c3c(Cl)cccc3Cl)cnn2C2CC2)cc1F [Compound I-42, 4-[(1S,4S,5R)-5-{[1-cyclopropyl-4-(2,6-dichlorophenyl)-1H-pyrazol-5-yl]methoxy}-2-azabicyclo[2.2.1]heptan-2-yl]-2-fluorobenzoic acid] | 102% | 251 nM | 398 nM | 110% |
| O=C(O)CCc1ccc(N2C[C@@H]3C[C@H]2C[C@H]3OCc2c(-c3c(Cl)cccc3Cl)cnn2C2CC2)cc1 [Compound I-43, 3-{4-[(1S,4S,5R)-5-{[1-cyclopropyl-4-(2,6-dichlorophenyl)-1H-pyrazol-5-yl]methoxy}-2-azabicyclo[2.2.1]heptan-2-yl]phenyl}propanoic acid] |  | < 316 nM | < 31.6 nM |  |
